What was measured:
[1] = tested on: PGE-2; experiment: UV-induced PGE-2 in dermal fibroblasts (ELISA); type: cell-based, human; settings: UVB doses of 75 mJ, 100 mJ and 125 mJ; 10 μM
Text: Methods and Materials. The following experiment involved examining the effect of CoQ10 on UVR-induced inflammatory mediators in human dermal fibroblasts. That is, because skin aging is known to be accelerated by inflammatory cytokines produced in the skin by UVR, this experiment assessed the ability of CoQ10 to inhibit the production of the inflammatory mediators produced in human dermal fibroblasts in response to either UVB radiation or to stimulation by IL-1, a pro-inflammatory cytokine produced in keratinocytes by UVR. […]
The cells were isolated and cultured as follows. The dermal fibroblasts were isolated from human neonatal foreskin and cultured in Dulbecco's modified eagle media with L-glutamine and 4.5 mM glucose and without sodium pyruvate (“DMEM”) (available from Fisher Scientific, Pittsburgh, Pa.) containing 5% horse serum (available from Hyclone, Logan, Utah), 5% fetal bovine serum (available from Hyclone), and penicillin/streptomycin (100 U/100 μg/ml). Cell cultures were grown at 37° C. in a humidified CO2 incubator (5% CO2). […]
(§1) For the experiments, cells were seeded into 12 well culture dishes in complete growth medium at a density of 10^5 cells/well and allowed to attach overnight. […] Cells were incubated for 24 hours at 37° C., at which time the media was removed for assay and the cells counted. […]

[2] = tested on: IL-6; experiment: UV-induced IL-6 in dermal fibroblasts (ELISA); type: cell-based, human; settings: 10 micromolar, 24 hours
Text: (§2) Methods and Materials. The following experiment involved examining the effect of CoQ10 on UVR-induced inflammatory mediators in human dermal fibroblasts. That is, because skin aging is known to be accelerated by inflammatory cytokines produced in the skin by UVR, this experiment assessed the ability of CoQ10 to inhibit the production of the inflammatory mediators produced in human dermal fibroblasts in response to either UVB radiation or to stimulation by IL-1, a pro-inflammatory cytokine produced in keratinocytes by UVR.
(§3) The dose of UV for stimulating the production in fibroblasts of each of the inflammatory mediators—PGE-2, IL-6, IL-8, and the matrix metalloproteinase (“MMP-1”)—was 50 mJ.
(§4) The cells were isolated and cultured as follows. […]
as §1

[3] = Oxidation of CoQ10 by 0.03% hypochlorite, with lycopene or colorless carotenoids (HPLC); type: physicochemical; settings: Example 7, 1.5 hours
Protocol: (§5) HPLC Analysis of CoQ10. The amount of CoQ10 remaining in degradation experiments below were determined by High Pressure Liquid Chromatography (HPLC). The column used was a Microsorb C18 reverse phase column (15 cm×0.46 cm), the mobile phase consisted of 85% methanol and 15% hexane at a flow rate of 1 ml/minute and CoQ10 was detected at […]. The instrument used was a HP 1090 gradient HPLC system with photodiode array detector and autosampler.
Methods and Materials. The following experiment was a comparison of the impact that colorless carotenoids or lycopene have on CoQ10 when CoQ10 is exposed to hypochlorite oxidation.
695 μg/ml of CoQ10 was prepared in chloroform/ethanol (1:1). The calculated amounts of phytoene and phytofluene used in the study was 0.0142% and 0.0012%, respectively. The calculated amount of lycopene was 2 mg/ml in chloroform. Four plates of cells were prepared and allowed to attach overnight as described above. CoQ10 was then added to each of the plates. Further, lycopene was added to one of the plates, and the carotenoids were added to another. Three plates (one of the plates containing only CoQ10 was treated as a control) were then incubated with 0.03% hypochlorite (“HOCL”) for 1.5 hours. Then the samples were removed and assayed by HPLC to determine CoQ10 levels.

[4] = tested on: MMP-1; experiment: UV-induced MMP-1 in dermal fibroblasts (ELISA); type: cell-based, human; settings: 10 micromolar, 50 mJ UV, 24 hours
Text: as §2, §3, §4, §1

[5] = Oxidation of CoQ10 by potassium hydroxide, with or without colorless carotenoids (HPLC); type: physicochemical; settings: 600 μM CoQ10, 1 mM KOH, 30 minutes, room temperature
Protocol: as §5
Methods and Materials. The following experiment examined whether colorless carotenoids could protect CoQ10 from potassium hydroxide oxidation.
600 μM of CoQ10 was prepared in chloroform stock. 500 μg/ml of the colorless carotenoids was prepared in DMSO. The calculated amount of potassium hydroxide (“KOH”) was 1 mM. Three plates of cells were prepared and allowed to attach overnight as described above. CoQ10 was then added to each of the plates. Further, KOH was added to two of the plates (one was maintained as a control containing only CoQ10). Further, the carotenoids were added to one of the plates containing KOH. Reactions were performed in a total volume of 1 ml. The cells containing KOH were incubated for 30 minutes at room temperature with the KOH. Then the samples were removed and assayed by HPLC to determine CoQ10 levels.

[6] = Oxidation of CoQ10 by sodium hypochlorite, with or without lycopene (HPLC); type: physicochemical
Protocol: as §5
Methods and Materials. The following experiment examined the effect of sodium hypochlorite on CoQ10.
For this experiment, CoQ10 was prepared in HPLC “mobil phase” (methanol:hexane) and incubated with different concentrations of sodium hypochlorite prepared in water/methanol. The reaction was allowed to proceed for up to 30 minutes, at which time samples were injected on HPLC.
The stock lycopene was 10 mg/ml in soybean oil. It was diluted into toluene and used in the reaction at 0.1% lycopene. To allow the CoQ10, hypochlorite aqueous solution and lycopene to react, a detergent was used to bring the polar and nonpolar phases together. The incubation lasted for 30 minutes.

[7] = Effect of UVB radiation on stability of CoQ10 in culture with fibroblasts (HPLC); type: physicochemical; settings: fibroblast culture, 10 μM CoQ10, 24 hours
Protocol: (§6) HPLC Methods. To measure CoQ10 levels in tissue culture medium, an appropriate high performance liquid chromatography (“HPLC”) method had to be established.
(§7) For the instant examples, a reliable HPLC method was established for CoQ10 using an isochratic method with a mobile phase of 85% methanol and 15% hexane. CoQ10 was detected at 275 nm.
as §5
(§8) Methods and Materials. The following experiment involved examining the effect of ultraviolet radiation (“UVR”) on levels of CoQ10 in culture medium. More specifically, ultraviolet-B (“UVB,” which is ultraviolet radiation ranging from about 290 nm to about 320 nm) dose-response studies were conducted on various concentrations of CoQ10 placed in either PBS buffer or into culture media. Doses of UVB ranged from 50 mJ to 200 mJ. In the culture media, 10 μm of CoQ10 was placed in a fibroblast culture for 24 hours.

[8] = Effect of UVB radiation on stability of CoQ10 in PBS buffer (HPLC); type: physicochemical
Protocol: as §6, §7, §5, §8

[9] = tested on: MMP-1; experiment: IL-1-induced MMP-1 in dermal fibroblasts (ELISA); type: cell-based, human; settings: Example 3; CoQ10 10 μM, 24 hours
[10] = tested on: PGE-2; experiment: IL-1-induced PGE-2 in dermal fibroblasts; type: cell-based, human; settings: 24 hours
Protocol: The cells were isolated and cultured as follows. The dermal fibroblasts were isolated from human neonatal foreskin and cultured in Dulbecco's modified eagle media with L-glutamine and 4.5 mM glucose and without sodium pyruvate (“DMEM”) (available from Fisher Scientific, Pittsburgh, Pa.) containing 5% horse serum (available from Hyclone, Logan, Utah), 5% fetal bovine serum (available from Hyclone), and penicillin/streptomycin (100 U/100 μg/ml). Cell cultures were grown at 37° C. in a humidified CO2 incubator (5% CO2). Cells were passaged prior to confluence by removing cells with a trypsin/EDTA solution, followed by centrifugation and re-seeding.
For the experiments, cells were seeded into 12 well culture dishes in complete growth medium at a density of 10^5 cells/well and allowed to attach overnight. The medium was then replaced with PBS for irradiation. A bank of two commercially available FS20 lamps were used for irradiation of cells. […] Cells were incubated for 24 hours at 37° C., at which time the media was removed for assay and the cells counted. […]
The impact of CoQ10, colorless carotenoids, and a combination of both on PGE-2 in fibroblasts stimulated with IL-1 was examined. […] All of the plates were then incubated for 24 hours and then the media was removed from culture and cells counted.

[11] = Degradation by hydroxyl radicals from the Fenton reaction (HPLC); type: physicochemical; settings: room temperature, one hour
Protocol: as §5
Methods and Materials. The following experiment examined the effect of the hydroxyl radical on CoQ10. The hydroxyl radical is a reactive oxygen species (“ROS”) produced in the human body. The radical is generated by the reaction of iron with hydrogen peroxide (commonly called the Fenton reaction).
For this experiment, CoQ10 was prepared in a solution of chloroform/ethanol (1:1) at a concentration of 10 micrograms/ml. The Fenton reaction was then initiated by the addition of hydrogen peroxide and iron (III) chloride and allowed to proceed at room temperature for one hour, at which time samples were injected on HPLC.

[12] = Solubility of CoQ10 in solvents compatible with cultured cells; type: physicochemical
Text: Because of the very poor solubility of CoQ10 in any solvent that is compatible with cultured cells, 10 μm of CoQ10 was the maximum final concentration that could be used in culture medium.

SMILES | effect on levels of PGE-2 after UVB irradiation [1] | level of IL-6 induced in UVR-treated fibroblasts [2] | loss of CoQ10 caused by hypochlorite ([3]; 695 μg/ml CoQ10, 0.03% hypochlorite) [%] | level of UVR-induced MMP1 [4] | loss of CoQ10 due to oxidation by potassium hydroxide [5] [%] | loss of CoQ10 caused by sodium hypochlorite ([6]; Example 5, methanol:hexane, up to 30 minutes) [%] | amount of CoQ10 after UVB radiation [7] | stability of CoQ10 to UVB ([8]; UVB doses 50 mJ to 200 mJ) | decrease in the concentration of CoQ10 ([8]; high UVB doses, within experimental error) | blocking the IL-1 induction in MMP-1 [9] | IL-1 induction of PGE-2 ([10]; Example 2, 10 micromolar, IL-1 100 picograms/ml) | inhibition at 10 µM ([10]; Homo sapiens, Fibroblast, Example 3, CoQ10 10 μM, colorless carotenoid 15 micrograms/ml, read-out: inhibition of the IL-1 induction of PGE-2) [%] | abundance or structure after the Fenton reaction ([11]; 10 micrograms/ml in chloroform/ethanol (1:1)) | solubility ([12]; any solvent compatible with cultured cells) | maximum final concentration that could be used in culture medium ([12]; culture medium) [μm] | oxidation of CoQ10 by hypochlorite in the presence of the carotenoid ([3]; 0.03% hypochlorite, lycopene 2 mg/ml, or phytoene 0.0142% and phytofluene 0.0012%) | oxidation of CoQ10 by hypochlorite in the presence of the carotenoid ([6]; Example 6, 0.1% lycopene, detergent, 30 minutes) | reduction of amount by the Fenton reaction ([11]; hydrogen peroxide and iron (III) chloride) [%]
COC1=C(OC)C(=O)C(C/C=C(\C)CC/C=C(\C)CC/C=C(\C)CC/C=C(\C)CC/C=C(\C)CC/C=C(\C)CC/C=C(\C)CC/C=C(\C)CC/C=C(\C)CCC=C(C)C)=C(C)C1=O [CoQ10, coenzyme Q10] | only a small inhibitory effect | markedly lowered | 60 | back to near control levels | 80 | 50 | generally unaffected | exhibited stability | < 10 | ineffective | significant reduction | 16 | did not cause a reduction | very poor | 10 |  |  | 
CC(C)=CCC/C(C)=C/C=C/C(C)=C/C=C/C(C)=C/C=C/C=C(C)/C=C/C=C(C)/C=C/C=C(\C)CCC=C(C)C [lycopene] |  |  |  |  |  |  |  |  |  |  |  |  |  |  |  | caused a reduction in oxidation | significantly reduced | 50
